Test results reported in the CheMixHub ionic liquid set.

Experiment: xn = mol fraction of the nth substance listed
Conditions: 101 kPa

COCCn1cc[n+](C)c1.N#C[S-] + CC1COC(=O)O1
Conditions	electrical conductivity [S/m]	viscosity [mPa·s]
288.15 K, x1 = 0.1022	0.963	4.19
288.15 K, x1 = 0.2001	1.05	5.1
288.15 K, x1 = 0.3021	0.967	7.1
288.15 K, x1 = 0.3996	0.843	11
288.15 K, x1 = 0.5012	0.717	15.9
288.15 K, x1 = 0.6015	0.586	22.3
288.15 K, x1 = 0.7032	0.471	34.5
288.15 K, x1 = 0.8004	0.381	50
288.15 K, x1 = 0.9002	0.286	68
288.15 K, x1 = 1	0.223	86
293.15 K, x1 = 0.1022	1.07	3.54
293.15 K, x1 = 0.2001	1.23	4.31
293.15 K, x1 = 0.3021	1.12	6.1
293.15 K, x1 = 0.3996	0.984	9.2
293.15 K, x1 = 0.5012	0.84	12.7
293.15 K, x1 = 0.6015	0.709	17.5
293.15 K, x1 = 0.7032	0.578	26.2
293.15 K, x1 = 0.8004	0.48	37.8
293.15 K, x1 = 0.9002	0.382	51
293.15 K, x1 = 1	0.315	67
298.15 K, x1 = 0.1022	1.19	3.05
298.15 K, x1 = 0.2001	1.4	3.71
298.15 K, x1 = 0.3021	1.3	5.3
298.15 K, x1 = 0.3996	1.16	7.8
298.15 K, x1 = 0.5012	1	10.4
298.15 K, x1 = 0.6015	0.844	14
298.15 K, x1 = 0.7032	0.714	20.3
298.15 K, x1 = 0.8004	0.591	29
298.15 K, x1 = 0.9002	0.492	39.7
298.15 K, x1 = 1	0.41	53
303.15 K, x1 = 0.1022	1.31	2.67
303.15 K, x1 = 0.2001	1.59	3.27
303.15 K, x1 = 0.3021	1.49	4.67
303.15 K, x1 = 0.3996	1.33	6.6
303.15 K, x1 = 0.5012	1.16	8.6
303.15 K, x1 = 0.6015	1.01	11.3
303.15 K, x1 = 0.7032	0.849	16.1
303.15 K, x1 = 0.8004	0.717	22.8
303.15 K, x1 = 0.9002	0.602	31.3
303.15 K, x1 = 1	0.52	42.1
308.15 K, x1 = 0.1022	1.44	2.38
308.15 K, x1 = 0.2001	1.79	2.91
308.15 K, x1 = 0.3021	1.69	4.11
308.15 K, x1 = 0.3996	1.53	5.7
308.15 K, x1 = 0.5012	1.34	7.2
308.15 K, x1 = 0.6015	1.17	9.4
308.15 K, x1 = 0.7032	1	13
308.15 K, x1 = 0.8004	0.867	18.2
308.15 K, x1 = 0.9002	0.749	25
308.15 K, x1 = 1	0.653	34.4
313.15 K, x1 = 0.1022	1.58	2.14
313.15 K, x1 = 0.2001	2	2.59
313.15 K, x1 = 0.3021	1.91	3.65
313.15 K, x1 = 0.3996	1.75	4.9
313.15 K, x1 = 0.5012	1.53	6.2
313.15 K, x1 = 0.6015	1.36	7.9
313.15 K, x1 = 0.7032	1.19	10.8
313.15 K, x1 = 0.8004	1.02	14.8
313.15 K, x1 = 0.9002	0.893	20.5
313.15 K, x1 = 1	0.795	28.6
318.15 K, x1 = 0.1022	1.72	1.94
318.15 K, x1 = 0.2001	2.21	2.36
318.15 K, x1 = 0.3021	2.14	3.3
318.15 K, x1 = 0.3996	1.97	4.28
318.15 K, x1 = 0.5012	1.75	5.3
318.15 K, x1 = 0.6015	1.55	6.7
318.15 K, x1 = 0.7032	1.36	9.1
318.15 K, x1 = 0.8004	1.2	12.3
318.15 K, x1 = 0.9002	1.07	17.1
318.15 K, x1 = 1	0.954	23.7
323.15 K, x1 = 0.1022	1.86	1.78
323.15 K, x1 = 0.2001	2.43	2.16
323.15 K, x1 = 0.3021	2.37	2.97
323.15 K, x1 = 0.3996	2.19	3.77
323.15 K, x1 = 0.5012	1.97	4.62
323.15 K, x1 = 0.6015	1.78	5.8
323.15 K, x1 = 0.7032	1.57	7.7
323.15 K, x1 = 0.8004	1.4	10.3
323.15 K, x1 = 0.9002	1.24	14.3
323.15 K, x1 = 1	1.12	20
328.15 K, x1 = 0.1022	2.02	1.65
328.15 K, x1 = 0.2001	2.67	1.99
328.15 K, x1 = 0.3021	2.62	2.68
328.15 K, x1 = 0.3996	2.43	3.33
328.15 K, x1 = 0.5012	2.21	4.05
328.15 K, x1 = 0.6015	1.99	5
328.15 K, x1 = 0.7032	1.78	6.6
328.15 K, x1 = 0.8004	1.6	8.8
328.15 K, x1 = 0.9002	1.45	12.1
328.15 K, x1 = 1	1.32	17.2
333.15 K, x1 = 0.1022	2.17	1.54
333.15 K, x1 = 0.2001	2.9	1.85
333.15 K, x1 = 0.3021	2.88	2.42
333.15 K, x1 = 0.3996	2.68	3
333.15 K, x1 = 0.5012	2.45	3.57
333.15 K, x1 = 0.6015	2.24	4.38
333.15 K, x1 = 0.7032	2.02	5.8
333.15 K, x1 = 0.8004	1.83	7.5
333.15 K, x1 = 0.9002	1.65	10.4
333.15 K, x1 = 1	1.51	14.8
